Experimental data taken from the NIST ThermoML archive (doi:10.1016/j.fluid.2006.01.027).
Numbers after ± are expanded uncertainties.

Conditions: Liquid, Pulse-echo method

C=CCCCCCCCCCCCCCC [1-hexadecene]
speed of sound [m/s]
Conditions	303.15 K	313.15 K	323.15 K	333.15 K	343.15 K	353.15 K	363.15 K
100 kPa	1314.4 ± 2.9	1278.1 ± 2.9	1242.5 ± 2.8	1207.6 ± 2.8	1173.2 ± 2.7	1139.5 ± 2.6	1106.4 ± 2.6
2500 kPa	1327.9 ± 3	1292.1 ± 2.9	1257.1 ± 2.8	1222.7 ± 2.8	1188.9 ± 2.7	1155.8 ± 2.7	1123.3 ± 2.6
5000 kPa	1341.7 ± 3	1306.4 ± 2.9	1271.9 ± 2.9	1238 ± 2.8	1204.9 ± 2.7	1172.3 ± 2.7	1140.5 ± 2.6
10000 kPa	1368.2 ± 3	1333.9 ± 3	1300.3 ± 2.9	1267.5 ± 2.9	1235.4 ± 2.8	1204 ± 2.7	1173.2 ± 2.7
15000 kPa	1393.7 ± 3.1	1360.2 ± 3	1327.5 ± 3	1295.6 ± 2.9	1264.4 ± 2.8	1233.9 ± 2.8	1204.1 ± 2.7
20000 kPa	1418.2 ± 3.1	1385.5 ± 3.1	1353.6 ± 3	1322.4 ± 2.9	1292.1 ± 2.9	1262.4 ± 2.8	1233.5 ± 2.8
30000 kPa	1464.6 ± 3.2	1433.2 ± 3.1	1402.7 ± 3.1	1372.9 ± 3	1343.9 ± 3	1315.7 ± 2.9	1288.2 ± 2.9
40000 kPa	1508 ± 3.3	1477.8 ± 3.2	1448.4 ± 3.2	1419.8 ± 3.1	1392 ± 3.1	1364.9 ± 3	1338.6 ± 3
60000 kPa	1587.7 ± 3.4	1559.3 ± 3.4	1531.8 ± 3.3	1505.1 ± 3.3	1479.1 ± 3.2	1453.9 ± 3.2	1429.4 ± 3.1
80000 kPa	1659.7 ± 3.6	1632.8 ± 3.5	1606.8 ± 3.5	1581.5 ± 3.4	1556.9 ± 3.4	1533.1 ± 3.3	1510 ± 3.3
100000 kPa	1725.7 ± 3.7	1700 ± 3.6	1675.2 ± 3.6	1651.1 ± 3.5	1627.7 ± 3.5	1605 ± 3.5	1583 ± 3.4
